Test results reported in patent US10736883B2, “Triazole furan compounds as agonists of the APJ receptor” (AMGEN INC., priority 2016, dated 2020).

Biological target: APJ receptor (Homo sapiens (Human), UniProt P35414)
Test: [35S]GTPγS binding assay on membranes from CHO cells stably expressing human APJ receptor
Assay type: biochemical
Conditions: membranes of CHO cells stably expressing human APJ receptor, means of several independent experiments, read-out: Activity hAPJ SPA EC50 IP
Summary of the method: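 Membranes from CHO cells stably expressing human APJ were incubated with 0.2 nM [35S]GTPγS and ligands for 90 min at RT in 20 mM HEPES pH 7.5, 5 mM MgCl2, 200 mM NaCl, 3 μM GDP, 0.1% BSA with WGA PS beads. Nonspecific binding was set with 100 μM GTPγS. EC50 came from non-linear regression.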

Chain of APJ receptor (P35414 whole entry): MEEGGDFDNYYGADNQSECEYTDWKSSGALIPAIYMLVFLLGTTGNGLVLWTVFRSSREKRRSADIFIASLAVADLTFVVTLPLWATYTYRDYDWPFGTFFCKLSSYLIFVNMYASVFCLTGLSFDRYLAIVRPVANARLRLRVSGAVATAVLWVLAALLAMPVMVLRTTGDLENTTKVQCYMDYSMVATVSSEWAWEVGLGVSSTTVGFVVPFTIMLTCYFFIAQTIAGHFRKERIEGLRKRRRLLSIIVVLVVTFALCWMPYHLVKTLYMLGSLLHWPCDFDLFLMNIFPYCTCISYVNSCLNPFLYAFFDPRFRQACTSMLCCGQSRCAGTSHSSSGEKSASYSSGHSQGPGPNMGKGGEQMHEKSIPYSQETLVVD

SMILES	EC50
COc1cccc(OC)c1-n1c(NS(=O)(=O)CCc2ncc(Cl)cc2-c2ccncc2)nnc1-c1ccco1 [Example 222.0, 2-(5-chloro-3,4′-bipyridin-2-yl)-N-(4-(2,6-dimethoxyphenyl)-5-(2-furanyl)-4H-1,2,4-triazol-3-yl)ethanesulfonamide]	0.31 nM
COc1cccc(OC)c1-n1c(NS(=O)(=O)CCc2ncc(Cl)cc2-c2cc[nH]n2)nnc1-c1ccco1 [Example 223.0, 2-(5-chloro-3-(1H-pyrazol-3-yl)-2-pyridinyl)-N-(4-(2,6-dimethoxyphenyl)-5-(2-furanyl)-4H-1,2,4-triazol-3-yl)ethanesulfonamide]	0.32 nM
COc1cccc(OC)c1-n1c(NS(=O)(=O)CCc2ncc(Cl)cc2CCN2CCCC2)nnc1-c1ccco1 [Example 232.0, 2-(5-Chloro-3-(2-(1-pyrrolidinyl)ethyl)-2-pyridinyl)-N-(4-(2,6-dimethoxyphenyl)-5-(2-furanyl)-4H-1,2,4-triazol-3-yl)ethanesulfonamide]	0.45 nM
COc1cccc(OC)c1-n1c(NS(=O)(=O)CCc2ncc(Cl)cc2CCN2CCC2)nnc1-c1ccco1 [Example 235.0, 2-(3-(2-(1-Azetidinyl)ethyl)-5-chloro-2-pyridinyl)-N-(4-(2,6-dimethoxyphenyl)-5-(2-furanyl)-4H-1,2,4-triazol-3-yl)ethanesulfonamide]	0.56 nM
COc1cccc(OC)c1-n1c(NS(=O)(=O)CCc2ncc(Cl)cc2CCN2CC[C@H](O)C2)nnc1-c1ccco1 [Example 238.0, 2-(5-Chloro-3-(2-((3S)-3-hydroxy-1-pyrrolidinyl)ethyl)-2-pyridinyl)-N-(4-(2,6-dimethoxyphenyl)-5-(2-furanyl)-4H-1,2,4-triazol-3-yl)ethanesulfonamide]	0.59 nM
COc1cccc(OC)c1-n1c(NS(=O)(=O)CCc2ncc(Cl)cc2CCN2CCOCC2)nnc1-c1ccco1 [Example 239.0, 2-(5-Chloro-3-(2-(4-morpholinyl)ethyl)-2-pyridinyl)-N-(4-(2,6-dimethoxyphenyl)-5-(2-furanyl)-4H-1,2,4-triazol-3-yl)ethanesulfonamide]	0.6 nM
COc1cccc(OC)c1-n1c(NS(=O)(=O)[C@@H](C)[C@@](C)(O)c2ncc(F)cn2)nnc1-c1ccc(C)o1 [Example 242.0, (2S,3S)—N-(4-(2,6-Dimethoxyphenyl)-5-(5-methyl-2-furanyl)-4H-1,2,4-triazol-3-yl)-3-(5-fluoro-2-pyrimidinyl)-3-hydroxy-2-butanesulfonamide]	0.81 nM
COc1ncnc(OC)c1-n1c(NS(=O)(=O)CCc2ccc(F)cc2C#N)nnc1-c1ccco1 [Example 252.0, 2-(2-Cyano-4-fluorophenyl)-N-(4-(4,6-dimethoxy-5-pyrimidinyl)-5-(2-furanyl)-4H-1,2,4-triazol-3-yl)ethanesulfonamide]	9.7 nM
COc1ncnc(OC)c1-n1c(NS(=O)(=O)CCc2ccc(Cl)cc2)nnc1-c1ccco1 [Example 253.0, 2-(4-Chlorophenyl)-N-(4-(4,6-dimethoxy-5-pyrimidinyl)-5-(2-furanyl)-4H-1,2,4-triazol-3-yl)ethanesulfonamide]	15 nM
COc1cccc(OC)c1-n1c(NS(=O)(=O)[C@@H](C)[C@H](C)c2ncc(C)cn2)nnc1-c1ccc(C)o1 [Example 262.0, (2S,3R)-N-(4-(2,6-dimethoxyphenyl)-5-(5-methylfuran-2-yl)-4H-1,2,4-triazol-3-yl)-3-(5-methylpyrimidin-2-yl)butane-2-sulfonamide]	0.07 nM
C[C@@H](Cc1ncc(F)cn1)S(=O)(=O)Nc1nnc(-c2ccco2)n1-c1ccccc1C(F)(F)F [Example 318.0, (2S)-1-(5-Fluoro-2-pyrimidinyl)-N-(5-(2-furanyl)-4-(2-(trifluoromethyl)phenyl)-4H-1,2,4-triazol-3-yl)-2-propanesulfonamide and (2S)-1-(5-fluoro-2-pyrimidinyl)-N-(5-(2-furanyl)-4-(2-(trifluoromethyl)phenyl)-4H-1,2,4-triazol-3-yl)-2-propanesulfonamide]	420 nM
COc1cccc(OC)c1-n1c(NS(=O)(=O)[C@H]2C[C@@H](O)CN(c3cncc(C#N)c3)C2)nnc1-c1ccc(C)o1 [Example 334.0, (3S,5R)-1-(5-Cyanopyridin-3-yl)-N-(4-(2,6-dimethoxyphenyl)-5-(5-methylfuran-2-yl)-4H-1,2,4-triazol-3-yl)-5-hydroxypiperidine-3-sulfonamide and (3S,5R)-1-(5-cyanopyridin-3-yl)-N-(4-(2,6-dimethoxyphenyl)-5-(5-methylfuran-2-yl)-4H-1,2,4-triazol-3-yl)-5-hydroxypiperidine-3-sulfonamide]	0.47 nM
COc1ncnc(OC)c1-n1c(NS(=O)(=O)[C@@H](C)[C@H](C)c2ncc(Cl)cn2)nnc1-c1ccc(C)o1 [Example 383.0, (2S,3R)-3-(5-Chloropyrimidin-2-yl)-N-(4-(4,6-dimethoxypyrimidin-5-yl)-5-(5-methylfuran-2-yl)-4H-1,2,4-triazol-3-yl)butane-2-sulfonamide]	0.06 nM
COc1ncnc(OC)c1-n1c(NS(=O)(=O)[C@@H](C)[C@H](OC)c2ncc(Cl)cn2)nnc1-c1ccc(C)o1 [Example 384.0, (1R,2S)-1-(5-chloro-2-pyrimidinyl)-N-(4-(4,6-dimethoxy-5-pyrimidinyl)-5-(5-methyl-2-furanyl)-4H-1,2,4-triazol-3-yl)-1-methoxy-2-propanesulfonamide]	0.15 nM
COCC1(n2c(NS(=O)(=O)[C@@H](C)[C@H](OC)c3ncc(Cl)cn3)nnc2-c2ccc(C)o2)CC1 [Example 385.0, (1R,2S)-1-(5-chloro-2-pyrimidinyl)-1-methoxy-N-(4-(1-(methoxymethyl)cyclopropyl)-5-(5-methyl-2-furanyl)-4H-1,2,4-triazol-3-yl)-2-propanesulfonamide]	0.38 nM
COCCn1c(NS(=O)(=O)[C@@H](C)[C@H](OC)c2ncc(Cl)cn2)nnc1-c1ccc(C)o1 [Example 386.0, (1R,2S)-1-(5-chloropyrimidin-2-yl)-1-methoxy-N-(4-(2-methoxyethyl)-5-(5-methylfuran-2-yl)-4H-1,2,4-triazol-3-yl)propane-2-sulfonamide]	37 nM
COCC(COC)n1c(NS(=O)(=O)[C@@H](C)[C@H](OC)c2ncc(Cl)cn2)nnc1-c1ccc(C)o1 [Example 387.0, (1R,2S)-1-(5-chloro-2-pyrimidinyl)-N-(4-(1,3-dimethoxy-2-propanyl)-5-(5-methyl-2-furanyl)-4H-1,2,4-triazol-3-yl)-1-methoxy-2-propanesulfonamide]	2.1 nM
CO[C@H](c1ncc(Cl)cn1)[C@H](C)S(=O)(=O)Nc1nnc(-c2ccc(C)o2)n1C(C)C [Example 388.0, (1R,2S)-1-(5-chloropyrimidin-2-yl)-N-(4-isopropyl-5-(5-methylfuran-2-yl)-4H-1,2,4-triazol-3-yl)-1-methoxypropane-2-sulfonamide]	37 nM
CO[C@H](c1ncc(Cl)cn1)[C@H](C)S(=O)(=O)Nc1nnc(-c2ccc(C)o2)n1[C@H]1CCCOC1 [Example 390.0, (1R,2S)-1-(5-chloropyrimidin-2-yl)-1-methoxy-N-(5-(5-methylfuran-2-yl)-4-((S)-tetrahydro-2H-pyran-3-yl)-4H-1,2,4-triazol-3-yl)propane-2-sulfonamide]	13 nM
